Assay results from patent EP2145877A2, “Aurora Kinase inhibitors” (Takeda Pharmaceutical Company Limited, priority 2006, dated 2008).
pIC50: −log10 of the molar value.

Biological target: Aurora B/INCENP (Homo sapiens, UniProt Q96GD4)
Assay: Inhibition of AIK: Aurora B/INCENP Direct Fluorescence Polarization (IMAP) kinase assay
Format: biochemical
Conditions: IC50 against AIK B; 10 uM ATP, 0.8 nM Aurora B/INCENP, 45 min at room temperature, FP readout; values given as bins
Procedure: Detection of the reaction product is performed by addition of Progressive IMAP binding reagent (Molecular Devices). Reaction product may be determined quantitatively by FP using an Analyst HT plate reader (Molecular Devices) with an excitation wavelength at 485 nm and emission at 530 nm and using a Fluorescein 505 dichroic mirror.
The assay reaction may be initiated as follows: 2 ul of (3x) 300 nM Fl-Peptide/30 uM ATP was added to each well of the plate, followed by the addition of 2 ul of (3x) inhibitor (2 fold serial dilutions for 11 data points for each inhibitor) containing 15% DMSO. Two microliters of (3x) 2.4 nM AuroraB/INCENP solution may be added to initiate the reaction (final enzyme concentration was 0.8 nM for Aurora B/INCENP). The reaction mixture may then be incubated at room temperature for 45 min, and quenched and developed by addition of 20 ul of 1 to 400 diluted Progressive IMAP binding reagent in 1x proprietary Progressive IMAP binding buffer A. Fluorescence polarization readings of the resulting reaction mixtures may be measured after a 60-minute incubation at room temperature.
IC50 values may be calculated by non-linear curve fitting of the compound concentrations and fluorescent polarization values to the standard IC50 equation.

Sequence of Aurora B/INCENP (Q96GD4 whole entry): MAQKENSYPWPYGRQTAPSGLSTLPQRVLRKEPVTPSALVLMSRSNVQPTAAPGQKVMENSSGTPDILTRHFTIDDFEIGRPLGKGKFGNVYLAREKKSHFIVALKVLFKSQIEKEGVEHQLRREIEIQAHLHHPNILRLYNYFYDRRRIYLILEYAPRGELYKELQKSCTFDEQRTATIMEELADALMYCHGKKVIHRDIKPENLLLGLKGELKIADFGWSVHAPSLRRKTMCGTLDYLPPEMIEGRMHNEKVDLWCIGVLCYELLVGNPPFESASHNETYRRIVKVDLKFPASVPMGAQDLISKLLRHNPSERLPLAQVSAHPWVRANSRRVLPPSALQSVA
Sequence of Aurora B/INCENP (Q9NQS7 whole entry partner): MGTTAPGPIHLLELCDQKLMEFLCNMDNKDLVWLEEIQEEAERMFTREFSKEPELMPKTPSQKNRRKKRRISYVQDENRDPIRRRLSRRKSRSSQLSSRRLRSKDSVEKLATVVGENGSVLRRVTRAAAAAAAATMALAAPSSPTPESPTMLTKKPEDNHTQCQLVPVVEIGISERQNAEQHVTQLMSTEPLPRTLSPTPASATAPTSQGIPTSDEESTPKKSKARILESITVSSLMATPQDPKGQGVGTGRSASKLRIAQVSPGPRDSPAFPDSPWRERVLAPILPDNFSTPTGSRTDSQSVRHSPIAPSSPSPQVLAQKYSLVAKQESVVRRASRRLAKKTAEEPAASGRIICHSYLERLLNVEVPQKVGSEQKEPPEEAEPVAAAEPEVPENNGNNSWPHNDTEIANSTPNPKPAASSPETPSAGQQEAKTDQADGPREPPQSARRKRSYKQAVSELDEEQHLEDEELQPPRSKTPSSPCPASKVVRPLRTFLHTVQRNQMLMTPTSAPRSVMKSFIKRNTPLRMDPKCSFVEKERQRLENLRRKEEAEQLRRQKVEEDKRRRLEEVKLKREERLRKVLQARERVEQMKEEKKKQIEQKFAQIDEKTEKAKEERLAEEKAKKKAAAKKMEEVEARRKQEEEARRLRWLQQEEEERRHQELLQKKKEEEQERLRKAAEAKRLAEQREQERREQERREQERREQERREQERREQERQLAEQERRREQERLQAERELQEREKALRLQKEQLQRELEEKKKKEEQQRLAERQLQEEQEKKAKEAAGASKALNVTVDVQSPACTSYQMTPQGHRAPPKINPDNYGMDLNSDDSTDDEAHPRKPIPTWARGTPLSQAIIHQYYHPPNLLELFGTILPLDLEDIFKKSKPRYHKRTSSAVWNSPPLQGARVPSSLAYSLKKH

Structure (SMILES) | pIC50
CCS(=O)(=O)c1cccc(-c2ccc(OC[C@H](O)CO)c3[nH]c4ncc(C)cc4c23)c1 [Compound 231, (R)-3-(5-(3-(ethylsulfonyl)phenyl)-3-methyl-9H-pyrido[2,3-b]indol-8-yloxy)propane-1,2-diol] | ≥ 8.30
CCS(=O)(=O)c1cccc(-c2cc(C(=O)NC[C@H](C)O)c(C)c3[nH]c4ncc(C)cc4c23)c1 [Compound 100, (S)-5-(3-(ethylsulfonyl)phenyl)-N-(2-hydroxypropyl)-3,8-dimethyl-9H-pyrido[2,3-b]indole-7-carboxamide] | ≥ 8.30
CCNS(=O)(=O)c1cccc(-c2ccc(OC)c3[nH]c4ncc(C)cc4c23)c1 [Compound 170, N-ethyl-3-(8-methoxy-3-methyl-9H-pyrido[2,3-b]indol-5-yl)benzenesulfonamide] | ≥ 8.30
CCS(=O)(=O)c1cccc(-c2cnc(Cl)c3[nH]c4ncc(C)cc4c23)c1 [Compound 40, 8-chloro-5-[3-(ethylsulfonyl)phenyl]-3-methyl-9H-pyrido[4',3':4,5]pyrrolo[2,3-b]pyridine] | ≥ 8.30
CCS(=O)(=O)c1cccc(-c2cc(C(=O)O)cc3[nH]c4ncc(C)cc4c23)c1 [Compound 140, 5-(3-Ethanesulfonyl-phenyl)-3-methyl-9H-pyrido[2,3-b]indole-7-carboxylic acid] | ≥ 8.30
CNS(=O)(=O)c1cccc(-c2ccc(C)c3[nH]c4ncc(C)cc4c23)c1 [Compound 15, 3-(3,8-dimethyl-9H-pyrido[2,3-b]indol-5-yl)-N-methylbenzenesulfonamide] | ≥ 8.30
CCS(=O)(=O)c1cccc(-c2ccc(OC)c3[nH]c4ncc(C)cc4c23)c1 [Compound 157] | ≥ 8.30
CCS(=O)(=O)c1cccc(-c2cnc(OCC3CCN(C)CC3)c3[nH]c4ncc(Cl)cc4c23)c1 [Compound 72, 3-Chloro-5-(3-ethanesulfonyl-phenyl)-8-(1-methyl-piperidin-4-ylmethoxy)-9H-dipyrido[2,3-b;4',3'-d]pyrrole] | ≥ 8.30
CCS(=O)(=O)c1cccc(-c2ccc(OCCCN(C)C)c3[nH]c4ncc(C)cc4c23)c1 [Compound 206, 3-(5-(3-(ethylsulfonyl)phenyl)-3-methyl-9H-pyrido[2,3-b]indol-8-yloxy)-N,N-dimethylpropan-1-amine] | ≥ 8.30
CCS(=O)(=O)c1cccc(-c2ccc(OCC3CCNCC3)c3[nH]c4ncc(C)cc4c23)c1 [Compound 185, 5-(3-(ethylsulfonyl)phenyl)-3-methyl-8-(piperidin-4-ylmethoxy)-9H-pyrido[2,3-b]indole] | ≥ 8.30
CCN(CCCOc1ccc(-c2cccc(S(=O)(=O)C3CC3)c2)c2c1[nH]c1ncc(Cl)cc12)CCOP(=O)(O)O [Compound 299, 2-((3-(3-chloro-5-(3-(cyclopropylsulfonyl)phenyl)-9H-pyrido[2,3-b]indol-8-yloxy)propyl)(ethyl)ammo)ethyl dihydrogen phosphate] | ≥ 8.30
CCS(=O)(=O)c1cccc(-c2cnc(OCCCO)c3[nH]c4ncc(C)cc4c23)c1 [Compound 55, 3-[5-(3-Ethanesulfonyl-phenyl)-3-methyl-9H-dipyrido[2,3-b;4',3'-d]pyrrol-8-yloxy]-propan-1-ol] | ≥ 8.30
CCN(CCO)CCCOc1ccc(-c2cccc(S(=O)(=O)C3CC3)c2)c2c1[nH]c1ncc(C)cc12 [Compound 270, 2-((3-(5-(3-(cyclopropylsulfonyl)phenyl)-3-methyl-9H-pyrido[2,3-b]indol-8-yloxy)propyl)(ethyl)amino)ethanol] | ≥ 8.30
CCS(=O)(=O)c1cccc(-c2ccc(O)c3[nH]c4ncc(C)cc4c23)c1 [Compound 158, 5-(3-(ethylsulfonyl)phenyl)-3-methyl-9H-pyrido[2,3-b]indol-8-ol] | ≥ 8.30
CCS(=O)(=O)c1cccc(-c2ccc(OCCCO)c3[nH]c4ncc(C)cc4c23)c1 [Compound 217, 3-(5-(3-(ethylsulfonyl)phenyl)-3-methyl-9H-pyrido[2,3-b]indol-8-yloxy)propan-1-ol] | ≥ 8.30
CCS(=O)(=O)c1cccc(-c2ccc(OCC3CCN(C)CC3)c3[nH]c4ncc(Cl)cc4c23)c1 [Compound 200, 3-chloro-5-(3-(ethylsulfonyl)phenyl)-8-((1-methylpiperidin-4-yl)methoxy)-9H-pyrido[2,3-b]indole] | ≥ 8.30
CCS(=O)(=O)c1cccc(-c2ccc(OCC3CCNCC3)c3[nH]c4ncc(Cl)cc4c23)c1 [Compound 201, 3-chloro-5-(3-(ethylsulfonyl)phenyl)-8-(piperidin-4-ylmethoxy)-9H-pyrido[2,3-b]indole] | ≥ 8.30
CCS(=O)(=O)c1cccc(-c2cc(C(=O)NCCO)c(C)c3[nH]c4ncc(C)cc4c23)c1 [Compound 101, 5-(3-(ethylsulfonyl)phenyl)-N-(2-hydroxyethyl)-3,8-dimethyl-9H-pyrido[2,3-b]indole-7-carboxamide] | ≥ 8.30
CCS(=O)(=O)c1cccc(-c2ccc(OCCCN(C)C)c3[nH]c4ncc(Cl)cc4c23)c1 [Compound 220, 3-(3-chloro-5-(3-(ethylsulfonyl)phenyl)-9H-pyrido[2,3-b]indol-8-yloxy)-N,N-dimethylpropan-1-amine] | ≥ 8.30
CCS(=O)(=O)c1cccc(-c2cc(C(N)=O)cc3[nH]c4ncc(C)cc4c23)c1 [Compound 128, 5-(3-Ethanesulfonyl-phenyl)-3-methyl-9H-pyrido[2,3-b]indole-7-carboxylic acid amide] | ≥ 8.30
Cc1cnc2[nH]c3c(OCCCN(C)C)ccc(-c4cccc(S(=O)(=O)C5CC5)c4)c3c2c1 [Compound 194, 3-(5-(3-(cyclopropylsulfonyl)phenyl)-3-methyl-9H-pyrido[2,3-b]indol-8-yloxy)-N,N-dimethylpropan-1-amine] | ≥ 8.30
CCS(=O)(=O)c1cccc(-c2cnc(OC[C@H](C)O)c3[nH]c4ncc(C)cc4c23)c1 [Compound 62, (S)-1-[5-(3-Ethanesulfonyl-phenyl)-3-methyl-9H-dipyrido[2,3-b;4',3'-d]pyrrol-8-yloxy]-propan-2-ol] | ≥ 8.30
Cc1cnc2[nH]c3c(OC[C@@H](O)CN(C)C)ccc(-c4cccc(S(=O)(=O)C5CC5)c4)c3c2c1 [Compound 313, (S)-1-(5-(3-(cyclopropylsulfonyl)phenyl)-3-methyl-9H-pyrido[2,3-b]indol-8-yloxy)-3-(dimethylamino)propan-2-ol] | ≥ 8.30
